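Values below derive from 48-hour exposures of cells grown in 96-well plates, with endpoints linearly interpolated between the two concentrations bracketing the appropriate inhibition level. Here, GI50 denotes the concentration required for 50% inhibition of growth.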 The source made the active and inactive calls. No stated cut-off is given here; in the data, active = GI50 up to about 1.1 µM and inactive = higher.
Tests used:
Test in all cases: DTP human tumour cell line panel, 48 h
786-0 = test system: 786-0
A498 = test system: A498
A549 = test system: A549
ACHN = test system: ACHN
BT-549 = test system: BT-549
CAKI-1 = test system: CAKI-1
CCRF-CEM = test system: CCRF-CEM
COLO 205 = test system: COLO 205
DU-145 = test system: DU-145
EKVX = test system: EKVX
HCT-116 = test system: HCT-116
HCT-15 = test system: HCT-15
HL-60 = test system: HL-60
HOP-62 = test system: HOP-62
HOP-92 = test system: HOP-92
HT-29 = test system: HT-29
Hs-578T = test system: Hs-578T
IGROV-1 = test system: IGROV-1
K562 = test system: K562
KM12 = test system: KM12
LOX IMVI = test system: LOX IMVI
M14 = test system: M14
MCF7 = test system: MCF7
MDA-MB-231 = test system: MDA-MB-231
MDA-MB-435 = test system: MDA-MB-435
MDA-N = test system: MDA-N
MOLT-4 = test system: MOLT-4
Malme-3M = test system: Malme-3M
NCI-H226 = test system: NCI-H226
NCI-H23 = test system: NCI-H23
NCI-H460 = test system: NCI-H460
NCI-H522 = test system: NCI-H522
NCI/ADR-RES = test system: NCI/ADR-RES
OVCAR-3 = test system: OVCAR-3
OVCAR-4 = test system: OVCAR-4
OVCAR-5 = test system: OVCAR-5
OVCAR-8 = test system: OVCAR-8
PC-3 = test system: PC-3
RPMI-8226 = test system: RPMI-8226
RXF 393 = test system: RXF 393
SF-268 = test system: SF-268
SF-295 = test system: SF-295
SF-539 = test system: SF-539
SK-MEL-28 = test system: SK-MEL-28
SK-MEL-2 = test system: SK-MEL-2
SK-MEL-5 = test system: SK-MEL-5
SK-OV-3 = test system: SK-OV-3
SN12C = test system: SN12C
SNB-19 = test system: SNB-19
SNB-75 = test system: SNB-75
SR = test system: SR
SW-620 = test system: SW-620
T47D = test system: T47D
TK-10 = test system: TK-10
U-251 = test system: U-251
UACC-257 = test system: UACC-257
UACC-62 = test system: UACC-62
UO-31 = test system: UO-31

CC1=NN(c2ccccc2)C(=O)C1/N=N/c1ccc([As](=O)(O)O)c(O)c1 (stereo not given)
GI50 (786-0): > 100 µM (inactive)
GI50 (A498): > 100 µM (inactive)
GI50 (A549): > 100 µM (inactive)
GI50 (ACHN): > 100 µM (inactive)
GI50 (BT-549): > 100 µM (inactive)
GI50 (CAKI-1): > 100 µM (inactive)
GI50 (CCRF-CEM): 25.4 µM (inactive)
GI50 (COLO 205): > 100 µM (inactive)
GI50 (DU-145): > 100 µM (inactive)
GI50 (EKVX): > 100 µM (inactive)
GI50 (HCT-116): > 100 µM (inactive)
GI50 (HCT-15): > 100 µM
GI50 (HL-60): 87.1 µM (inactive)
GI50 (HOP-62): > 100 µM (inactive)
GI50 (HOP-92): > 100 µM (inactive)
GI50 (HT-29): > 100 µM (inactive)
GI50 (Hs-578T): > 100 µM (inactive)
GI50 (IGROV-1): > 100 µM (inactive)
GI50 (K562): > 100 µM (inactive)
GI50 (KM12): > 100 µM (inactive)
GI50 (LOX IMVI): > 100 µM (inactive)
GI50 (M14): > 100 µM (inactive)
GI50 (MCF7): > 100 µM (inactive)
GI50 (MDA-MB-231): > 100 µM (inactive)
GI50 (MDA-MB-435): > 100 µM (inactive)
GI50 (MDA-N): > 100 µM (inactive)
GI50 (MOLT-4): > 100 µM (inactive)
GI50 (Malme-3M): > 100 µM (inactive)
GI50 (NCI-H226): > 100 µM (inactive)
GI50 (NCI-H23): > 100 µM (inactive)
GI50 (NCI-H460): > 100 µM (inactive)
GI50 (NCI-H522): > 100 µM (inactive)
GI50 (NCI/ADR-RES): > 100 µM (inactive)
GI50 (OVCAR-3): > 100 µM (inactive)
GI50 (OVCAR-4): > 100 µM (inactive)
GI50 (OVCAR-5): > 100 µM (inactive)
GI50 (OVCAR-8): > 100 µM (inactive)
GI50 (PC-3): > 100 µM (inactive)
GI50 (RPMI-8226): 57 µM (inactive)
GI50 (RXF 393): > 100 µM (inactive)
GI50 (SF-268): > 100 µM (inactive)
GI50 (SF-295): > 100 µM (inactive)
GI50 (SF-539): > 100 µM (inactive)
GI50 (SK-MEL-28): > 100 µM (inactive)
GI50 (SK-MEL-2): > 100 µM (inactive)
GI50 (SK-MEL-5): > 100 µM (inactive)
GI50 (SK-OV-3): > 100 µM (inactive)
GI50 (SN12C): > 100 µM (inactive)
GI50 (SNB-19): > 100 µM (inactive)
GI50 (SNB-75): > 100 µM (inactive)
GI50 (SR): > 100 µM (inactive)
GI50 (SW-620): > 100 µM (inactive)
GI50 (T47D): 60.8 µM (inactive)
GI50 (TK-10): > 100 µM (inactive)
GI50 (U-251): > 100 µM (inactive)
GI50 (UACC-257): > 100 µM (inactive)
GI50 (UACC-62): > 100 µM (inactive)
GI50 (UO-31): > 100 µM (inactive)

Nc1cccc(OCc2nc(N)nc(N)c2-c2ccc(Cl)cc2)c1
GI50 (786-0): 53.5 µM (inactive)
GI50 (A498): 39.4 µM (inactive)
GI50 (A549): 35.8 µM (inactive)
GI50 (ACHN): 44.3 µM (inactive)
GI50 (BT-549): 36.1 µM (inactive)
GI50 (CAKI-1): 46.7 µM (inactive)
GI50 (CCRF-CEM): 13.1 µM (inactive)
GI50 (COLO 205): 18.6 µM (inactive)
GI50 (DU-145): 73.1 µM (inactive)
GI50 (EKVX): 52.8 µM (inactive)
GI50 (HCT-116): 44.7 µM (inactive)
GI50 (HCT-15): 39.2 µM
GI50 (HL-60): 23.8 µM (inactive)
GI50 (HOP-62): > 100 µM (inactive)
GI50 (HOP-92): 31.3 µM (inactive)
GI50 (HT-29): 39.4 µM (inactive)
GI50 (Hs-578T): 62.2 µM (inactive)
GI50 (IGROV-1): 37.3 µM (inactive)
GI50 (K562): 23.9 µM (inactive)
GI50 (KM12): 57.3 µM (inactive)
GI50 (LOX IMVI): 52.5 µM (inactive)
GI50 (M14): 60.8 µM (inactive)
GI50 (MCF7): 37.8 µM (inactive)
GI50 (MDA-MB-231): > 100 µM (inactive)
GI50 (MDA-MB-435): 56.4 µM (inactive)
GI50 (MDA-N): 42.1 µM (inactive)
GI50 (MOLT-4): 26.1 µM (inactive)
GI50 (Malme-3M): > 100 µM (inactive)
GI50 (NCI-H226): 12.4 µM (inactive)
GI50 (NCI-H23): 43.2 µM (inactive)
GI50 (NCI-H460): 32.9 µM (inactive)
GI50 (NCI-H522): 57.5 µM (inactive)
GI50 (NCI/ADR-RES): 44 µM (inactive)
GI50 (OVCAR-3): > 100 µM (inactive)
GI50 (OVCAR-4): 49.7 µM (inactive)
GI50 (OVCAR-5): > 100 µM (inactive)
GI50 (OVCAR-8): 43.9 µM (inactive)
GI50 (PC-3): 41.3 µM (inactive)
GI50 (RPMI-8226): 37.8 µM (inactive)
GI50 (RXF 393): 60 µM (inactive)
GI50 (SF-268): 60 µM (inactive)
GI50 (SF-295): 64.1 µM (inactive)
GI50 (SK-MEL-28): 70 µM (inactive)
GI50 (SK-MEL-2): > 100 µM (inactive)
GI50 (SK-MEL-5): 26.9 µM (inactive)
GI50 (SK-OV-3): 89.1 µM (inactive)
GI50 (SN12C): 51.3 µM (inactive)
GI50 (SNB-19): > 100 µM (inactive)
GI50 (SNB-75): 32.2 µM (inactive)
GI50 (SR): 36.7 µM (inactive)
GI50 (SW-620): 50.6 µM (inactive)
GI50 (T47D): 35.8 µM (inactive)
GI50 (TK-10): 31.5 µM (inactive)
GI50 (U-251): 64.9 µM (inactive)
GI50 (UACC-257): 41.1 µM (inactive)
GI50 (UACC-62): 62.2 µM (inactive)
GI50 (UO-31): 36.3 µM (inactive)
